Legend:
[1] = molecular target: T1, maltose-inducible α-glucosidase (MalL) (Bacillus subtilis, UniProt O06994); experiment: ensemble steady-state kinetics, colorimetric assay in solution; type: biochemical; details: free enzyme in solution; temperature of this constant not given
T1 construct: full-length, recombinant, purified as in earlier work
Source text: ensemble steady-state kinetics, colorimetric assay in solution on maltose-inducible α-glucosidase (MalL) | both the KM and ΔCP^‡ values are similar between WT MalL and S135C MalL

[2] = molecular target: T2, maltose-inducible α-glucosidase (MalL) (Bacillus subtilis, UniProt O06994, S135C); experiment: as above; type: biochemical; details: free enzyme in solution; temperature of this constant not given
T2 construct: full-length, recombinant, purified as in earlier work
T2 sequence (O06994 whole entry S135C): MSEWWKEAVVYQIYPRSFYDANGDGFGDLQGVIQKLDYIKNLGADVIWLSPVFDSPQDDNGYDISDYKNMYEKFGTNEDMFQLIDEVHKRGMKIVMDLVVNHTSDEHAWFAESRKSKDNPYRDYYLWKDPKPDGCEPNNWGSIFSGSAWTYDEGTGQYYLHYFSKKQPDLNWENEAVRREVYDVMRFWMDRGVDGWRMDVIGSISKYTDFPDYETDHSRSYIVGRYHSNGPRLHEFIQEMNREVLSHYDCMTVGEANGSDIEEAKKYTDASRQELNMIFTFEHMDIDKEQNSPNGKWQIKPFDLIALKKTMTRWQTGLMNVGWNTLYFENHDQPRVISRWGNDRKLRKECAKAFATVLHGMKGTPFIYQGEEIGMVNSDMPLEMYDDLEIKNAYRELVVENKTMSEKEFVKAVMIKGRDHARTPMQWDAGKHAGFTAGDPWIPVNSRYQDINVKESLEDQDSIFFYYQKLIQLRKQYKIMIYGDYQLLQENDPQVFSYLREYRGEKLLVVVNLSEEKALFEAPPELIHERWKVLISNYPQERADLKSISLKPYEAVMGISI

T1 sequence (O06994 whole entry): as the sequence (O06994 whole entry S135C) above, with C135S counted along it

Substance: 4-nitrophenyl-β-D-glucopyranoside
- Km [1]: 108 ± 34.2 µM
- Km [2]: 141 ± 39.6 µM

From publication PMC8165693, “Sensing Enzyme Activation Heat Capacity at the Single-Molecule Level Using Gold-Nanorod-Based Optical Whispering Gallery Modes” (ACS Applied Nano Materials, 2021)
